Assay results: patent US20120121540A1 (priority 2007, published 2012)

Experiment: HCV replicon assay (luciferase reporter, ET cell line)
Type: cell-based
Conditions: Hepatitis C virus, HCV replicon luciferase activity in ET cells
Experimental: A cell line, ET (Huh-lucubineo-ET) is used for screening of compounds for inhibiting HCV RNA dependent RNA polymerase. The ET cell line is stably transfected with RNA transcripts harboring a I389 luc-ubi-neo/NS3-3′/ET; replicon with firefly luciferase-ubiquitin-neomycin phosphotransferase fusion protein and EMCV-IRES driven NS3-5B polyprotein containing the cell culture adaptive mutations (E1202G; T1280I; K1846T) (Krieger at al, 2001 and unpublished). The ET cells are grown in DMEM (Dulbeco's Modified Eagle's Medium), supplemented with 10% fetal calf serum, 2 mM Glutamine, Penicillin (100 IU/mL)/Streptomycin (100 μg/mL), 1× nonessential amino acids, and 250 μg/mL G418 (“Geneticin”). They are all available through Life Technologies (Bethesda, Md.). The cells are plated at 0.5−1.0×10^4 cells/well in the 96 well plates and incubated for 24 hrs before adding test compound. The compounds are added to the cells to achieve a final concentration of 0.1 nM to 50 μm and a final DMSO (dimethylsulfoxide) concentration of 0.5%. Luciferase activity is measured 48-72 hours later by adding a lysis buffer and the substrate (Catalog number Glo-lysis buffer E2661 and Bright-Glo luciferase system E2620 Promega, Madison, Wis.). Cells should not be too confluent during the assay. Percent inhibition of replication data is plotted relative to no compound control. Under the same condition, cytotoxicity of the compounds are determined using cell proliferation reagent, WST-1 (Roche, Germany). The compounds showing antiviral activities, but no significant cytotoxicities are chosen to determine EC50 and TC50. For these determinations, a 10 point, 2-fold serial dilution for each compound was used, which spans a concentration range of 1000 fold. EC50 and similarly TC50 values were calculated by fitting % inhibition at each concentration to the following equation:
% inhibition=100%/[(EC50/[I])^b+1]
where b is Hill's coefficient.
% inhibition values at a specific concentration, […] for example, can also be derived from the equation above.

Compound	inhibition at 10 µM [%]
O=C(NCC1CCCCC1)c1nc2c(C(F)(F)F)cc(-c3ccco3)cn2c1Cl [Compound 170, 3-Chloro-6-furan-2-yl-8-trifluoromethyl-imidazo[1,2-a]pyridine-2-carboxylic acid cyclohexylmethyl-amide]	58
O=C(NC(C(=O)NCCCN1CCOCC1)c1cccs1)c1nc2c(C(F)(F)F)cc(-c3ccco3)cn2c1Cl (centres unmarked) [Compound 171, 3-Chloro-6-furan-2-yl-8-trifluoromethyl-imidazo[1,2-a]pyridine-2-carboxylic acid [(3-morpholin-4-yl-propylcarbamoyl)-thiophen-2-yl-methyl]-amide]	99.4
CN(C)CCNC(=O)C(NC(=O)c1nc2c(C(F)(F)F)cc(-c3ccco3)cn2c1Cl)c1cccs1 (centres unmarked) [Compound 172, 3-Chloro-6-furan-2-yl-8-trifluoromethyl-imidazo[1,2-a]pyridine-2-carboxylic acid [(2-dimethylamino-ethylcarbamoyl)-thiophen-2-yl-methyl]-amide]	100
O=C(NCc1ccsc1)c1nc2c(C(F)(F)F)cc(-c3ccco3)cn2c1Cl [Compound 173, 3-Chloro-6-furan-2-yl-8-trifluoromethyl-imidazo[1,2-a]pyridine-2-carboxylic acid (thiophen-3-ylmethyl)-amide]	95.2
O=C(NCc1ccccc1)c1nc2c(C(F)(F)F)cc(-c3ccco3)cn2c1Cl [Compound 174, 3-Chloro-6-furan-2-yl-8-trifluoromethyl-imidazo[1,2-a]pyridine-2-carboxylic acid benzylamide]	85.7
O=C(NCc1cccs1)c1nc2c(C(F)(F)F)cc(-c3cccs3)cn2c1Cl [Compound 175, 3-Chloro-6-thiophen-2-yl-8-trifluoromethyl-imidazo[1,2-a]pyridine-2-carboxylic acid (thiophen-2-ylmethyl)-amide]	99.4
O=C(NCc1cccs1)c1nc2c(C(F)(F)F)cc(-c3ccc(Cl)s3)cn2c1Cl [Compound 176, 3-Chloro-6-(5-chloro-thiophen-2-yl)-8-trifluoromethyl-imidazo[1,2-a]pyridine-2-carboxylic acid (thiophen-2-ylmethyl)-amide]	96.8
O=C(NCc1cccs1)c1nc2c(C(F)(F)F)cc(-c3ccccc3)cn2c1Cl [Compound 177, 3-Chloro-6-phenyl-8-trifluoromethyl-imidazo[1,2-a]pyridine-2-carboxylic acid (thiophen-2-ylmethyl)-amide]	93.2
O=C(NCc1cccs1)c1nc2c(C(F)(F)F)cc(-c3ccc(F)cc3)cn2c1Cl [Compound 178, 3-Chloro-6-(4-fluoro-phenyl)-8-trifluoromethyl-imidazo[1,2-a]pyridine-2-carboxylic acid (thiophen-2-ylmethyl)-amide]	75.2
O=C(NCc1ccccc1C(F)(F)F)c1nc2c(C(F)(F)F)cc(-c3ccco3)cn2c1Cl [Compound 179, 3-Chloro-6-furan-2-yl-8-trifluoromethyl-imidazo[1,2-a]pyridine-2-carboxylic acid 2-trifluoromethyl-benzylamide]	37.5
O=C(NCc1cccc(C(F)(F)F)c1)c1nc2c(C(F)(F)F)cc(-c3ccco3)cn2c1Cl [Compound 180, 3-Chloro-6-furan-2-yl-8-trifluoromethyl-imidazo[1,2-a]pyridine-2-carboxylic acid 3-trifluoromethyl-benzylamide]	20.4
O=C(NCc1ccc(C(F)(F)F)cc1)c1nc2c(C(F)(F)F)cc(-c3ccco3)cn2c1Cl [Compound 181, 3-Chloro-6-furan-2-yl-8-trifluoromethyl-imidazo[1,2-a]pyridine-2-carboxylic acid 4-trifluoromethyl-benzylamide]	48.2
O=C(NCc1nccs1)c1nc2c(C(F)(F)F)cc(-c3ccco3)cn2c1Cl [Compound 182, 3-Chloro-6-furan-2-yl-8-trifluoromethyl-imidazo[1,2-a]pyridine-2-carboxylic acid (thiazol-2-ylmethyl)-amide]	80.8
O=C(NCC1CCCO1)c1nc2c(C(F)(F)F)cc(-c3ccco3)cn2c1Cl (centres unmarked) [Compound 184, 3-Chloro-6-furan-2-yl-8-trifluoromethyl-imidazo[1,2-a]pyridine-2-carboxylic acid (tetrahydro-furan-2-ylmethyl)-amide]	84.4
O=C(NCCc1cccs1)c1nc2c(C(F)(F)F)cc(-c3ccco3)cn2c1Cl [Compound 185, 3-Chloro-6-furan-2-yl-8-trifluoromethyl-imidazo[1,2-a]pyridine-2-carboxylic acid (2-thiophen-2-yl-ethyl)-amide]	95.7
O=C(c1nc2c(C(F)(F)F)cc(-c3ccco3)cn2c1Cl)N1CCC(c2ccccc2)C1 (centres unmarked) [Compound 186, (3-Chloro-6-furan-2-yl-8-trifluoromethyl-imidazo[1,2-a]pyridin-2-yl)-(3-phenyl-pyrrolidin-1-yl)-methanone]	96
O=C(NC1CCc2ccccc21)c1nc2c(C(F)(F)F)cc(-c3ccco3)cn2c1Cl (centres unmarked) [Compound 187, 3-Chloro-6-furan-2-yl-8-trifluoromethyl-imidazo[1,2-a]pyridine-2-carboxylic acid indan-1-ylamide]	34.2
O=C(c1nc2c(C(F)(F)F)cc(-c3ccco3)cn2c1Cl)N1CCCC1c1cccs1 (centres unmarked) [Compound 189, (3-Chloro-6-furan-2-yl-8-trifluoromethyl-imidazo[1,2-a]pyridin-2-yl)-(2-thiophen-2-yl-pyrrolidin-1-yl)-methanone]	97.3
COc1ccccc1CNC(=O)c1nc2c(C(F)(F)F)cc(-c3ccco3)cn2c1Cl [Compound 190, 3-Chloro-6-furan-2-yl-8-trifluoromethyl-imidazo[1,2-a]pyridine-2-carboxylic acid 2-methoxy-benzylamide]	68.1
COc1cccc(CNC(=O)c2nc3c(C(F)(F)F)cc(-c4ccco4)cn3c2Cl)c1 [Compound 191, 3-Chloro-6-furan-2-yl-8-trifluoromethyl-imidazo[1,2-a]pyridine-2-carboxylic acid 3-methoxy-benzylamide]	2.3
COc1ccc(CNC(=O)c2nc3c(C(F)(F)F)cc(-c4ccco4)cn3c2Cl)cc1 [Compound 192, 3-Chloro-6-furan-2-yl-8-trifluoromethyl-imidazo[1,2-a]pyridine-2-carboxylic acid 4-methoxy-benzylamide]	73.9
O=C(NCc1cccs1)c1nc2c(C(F)(F)F)cc(-c3ccccc3)cn2c1C(F)(F)F [Compound 193, 6-Phenyl-3,8-bis-trifluoromethyl-imidazo[1,2-a]pyridine-2-carboxylic acid (thiophen-2-ylmethyl)-amide]	82.3
CCc1c(C(=O)NCc2cccs2)nc2c(C(F)(F)F)cc(-c3ccco3)cn12 [Compound 194, 3-Ethyl-6-furan-2-yl-8-trifluoromethyl-imidazo[1,2-a]pyridine-2-carboxylic acid (thiophen-2-ylmethyl)-amide]	89.5
O=C(NCc1cccs1)c1nc2c(C(F)(F)F)cc(-c3cccc(F)c3)cn2c1Cl [Compound 196, 3-Chloro-6-(3-fluoro-phenyl)-8-trifluoromethyl-imidazo[1,2-a]pyridine-2-carboxylic acid (thiophen-2-ylmethyl)-amide]	94
O=C(NCc1cccs1)c1nc2c(C(F)(F)F)cc(-c3ccccc3F)cn2c1Cl [Compound 197, 3-Chloro-6-(2-fluoro-phenyl)-8-trifluoromethyl-imidazo[1,2-a]pyridine-2-carboxylic acid (thiophen-2-ylmethyl)-amide]	90.6
O=C(NCc1cccs1)c1nc2c(C(F)(F)F)cc(-c3ccc(F)c(F)c3)cn2c1Cl [Compound 198, 3-Chloro-6-(3,4-difluoro-phenyl)-8-trifluoromethyl-imidazo[1,2-a]pyridine-2-carboxylic acid (thiophen-2-ylmethyl)-amide]	83.2
O=C(NCc1cccs1)c1nc2c(C(F)(F)F)cc(-c3ccc(C(F)(F)F)cc3)cn2c1Cl [Compound 199, 3-Chloro-8-trifluoromethyl-6-(4-trifluoromethyl-phenyl)-imidazo[1,2-a]pyridine-2-carboxylic acid (thiophen-2-ylmethyl)-amide]	41
O=C(NCc1cccs1)c1nc2c(C(F)(F)F)cc(-c3ccsc3)cn2c1-c1ccsc1 [Compound 200, 3,6-Di-thiophen-3-yl-8-trifluoromethyl-imidazo[1,2-a]pyridine-2-carboxylic acid (thiophen-2-ylmethyl)-amide]	91.6
O=C(NCc1ccccc1F)c1nc2c(C(F)(F)F)cc(-c3ccco3)cn2c1Cl [Compound 201, 3-Chloro-6-furan-2-yl-8-trifluoromethyl-imidazo[1,2-a]pyridine-2-carboxylic acid 2-fluoro-benzylamide]	72.4
